Data set [1] relates to Plasmodium falciparum. The data set is described as follows: Antiplasmodial activity against asynchronous blood-stage Plasmodium falciparum HB3 infected in human RBC at 30 uM after 24 hrs by Malstat assay. Type of data set: functional, organism-based.
The test system of data set [2] is Plasmodium falciparum. Kind of data set: Antiplasmodial activity against asynchronous blood-stage Plasmodium falciparum HB3 infected in human RBC at 30 uM after 15 hrs by Malstat assay. The format is functional, organism-based.
Data set [3] relates to Plasmodium falciparum. Kind of data set: Antiplasmodial activity against asynchronous blood-stage Plasmodium falciparum HB3 infected in human RBC at 30 uM after 18 hrs by Malstat assay. Type of data set: functional, organism-based.
Data set [4] has as its system Plasmodium falciparum. The data set is described as follows: Antiplasmodial activity against asynchronous blood-stage Plasmodium falciparum HB3 infected in human RBC at 30 uM after 21 hrs by Malstat assay. Type of data set: functional, organism-based.
The subject of data set [5] is Plasmodium falciparum. Kind of data set: Antiplasmodial activity against asynchronous blood-stage Plasmodium falciparum HB3 infected in human RBC at 30 uM after 24 hrs by microscopy. The format is functional, organism-based.
Data set [6] relates to Plasmodium falciparum. The data set is described as follows: Antiplasmodial activity against Plasmodium falciparum 3D7 clone infected in Anopheles gambiae Keele vector assessed as prevalence of […] infection at 30 uM. Type of data set: functional.
The species named for data set [7] is Homo sapiens. The data set is described as follows: Toxicity in human RBC assessed as induction of hemolysis at 1 to 30 uM.
Data set [8] deals with Trypanosoma brucei brucei. The data set is described as follows: […] activity against bloodstream form of Trypanosoma brucei 427. Type of data set: functional, organism-based.
In data set [9] the test system is Trypanosoma brucei brucei. Kind of data set: Trypanocidal activity against bloodstream form of Trypanosoma brucei brucei 427 assessed as lysis half-time at 5.4 uM by alamar blue assay. Type of data set: functional, organism-based.

Activity calls are given as the source filed them. No cut-off for these calls is given here.

On to `CC[C@H](C)[C@H](NC(=O)[C@H](CCCCN)NC(=O)[C@H](CCCCN)NC(=O)[C@H](C)NC(=O)[C@H](CC(C)C)NC(=O)[C@H](C)NC(=O)[C@H](C)NC(=O)[C@H](CC(C)C)NC(=O)[C@H](C)NC(=O)[C@H](CCCCN)NC(=O)[C@H](CC(C)C)NC(=O)[C@H](CC(N)=O)NC(=O)[C@@H](NC(=O)[C@H](CCCCN)NC(=O)CNC(=O)[C@H](CC(C)C)NC(=O)[C@H](CC(C)C)NC(=O)[C@H](Cc1ccc(O)cc1)NC(=O)CNC(=O)[C@H](C)N)[C@@H](C)CC)C(=O)N[C@@H](CC(C)C)C(=O)O`, for which the result in data set [1], in [2], in data set [3], in data set [4], in data set [5] and in data set [9] was Active. Also, the results for the Activity in [6] and in data set [7] were 30% and “Non-toxic”, respectively. In data set [8], this compound registered an IC50 of 2.7 µM.

On to H-LLIILRRRIRKQAHAHSK-OH, for which the result in data set [1] and in data set [5] was inactive. In addition, the Activity in data set [6] stood at 44%.
